Data reported in US20200331904A1, “3-AMINO-[1,2,4]-TRIAZOLE DERIVATIVES AND THEIR USE FOR CONTROLLING UNDESIRED PLANT GROWTH” (Bayer CropScience Aktiengesellschaft, priority 2017, published 2020).

Assays:
Format in all cases: in vivo
Amaranthus retroflexus = assay: Pre-emergence herbicidal efficacy, AMARE; settings: Table B2, application rate 320 g/ha, scored visually after about 3 weeks vs untreated controls
From the text: (§1) C.1 Pre-Emergence Herbicidal Action and Crop Plant Compatibility
(§2) Seeds of monocotyledonous and dicotyledonous weed plants and crop plants are placed in plastic or organic planting pots and covered with soil. The compounds of the invention, formulated in the form of wettable powders (WP) or as emulsion concentrates (EC), are then applied onto the surface of the covering soil as aqueous suspension or emulsion with addition of 0.5% additive at a water application rate of […] (converted). After the treatment, the pots are placed in a greenhouse and kept under good growth conditions for the trial plants. After about 3 weeks, the effect of the preparations is scored visually in comparison with untreated controls as percentages. For example, 100% activity=the plants have died, 0% activity=like control plants.
(§3) ABUTH: Abutilon theophrasti ALOMY: Alopecurus myosuroides AMARE: Amaranthus retroflexus AVEFA: Avena fatua CYPES: Cyperus esculentus ECHCG: Echinochloa crus-galli LOLMU: Lolium multiflorum MATIN: Matricaria inodora PHBPU: Ipomoea purpurea POLCO: Polygonum convolvulus SETVI: Setaria viridis STEME: Stellaria media VERPE: Veronica persica VTOTR: Viola tricolor

Matricaria inodora = assay: Pre-emergence herbicidal efficacy, MATIN
From the text: as §1, §2, §3

Polygonum convolvulus = assay: Pre-emergence herbicidal efficacy, POLCO; settings: Table B2, application rate 320 g/ha, scored visually after about 3 weeks vs untreated controls
From the text: as §1, §2, §3

Stellaria media = assay: Pre-emergence herbicidal efficacy, STEME
From the text: as §1, §2, §3

Viola tricolor = assay: Pre-emergence herbicidal efficacy, VIOTR
From the text: as §1, §2, §3

Veronica persica = assay: Pre-emergence herbicidal efficacy, VERPE; settings: Table B2, application rate 320 g/ha, scored visually after about 3 weeks vs untreated controls
From the text: as §1, §2, §3

[1] = Table B2, application rate 320 g/ha, scored visually after about 3 weeks vs untreated controls
[2] = application rate 320 g/ha, scored visually after about 3 weeks

| Compound | Herbicidal efficacy against AMARE (Amaranthus retroflexus) [%] | Herbicidal efficacy against MATIN (Matricaria inodora; [1]) [%] | Herbicidal efficacy against POLCO (Polygonum convolvulus) [%] | Herbicidal efficacy against STEME (Stellaria media; [1]) [%] | Herbicidal efficacy against VIOTR (Viola tricolor; [1]) [%] | Herbicidal efficacy against VERPE (Veronica persica) [%] | Herbicidal efficacy against MATIN (Matricaria inodora; [2]) [%] | Herbicidal efficacy against STEME (Stellaria media; [2]) [%] | Herbicidal efficacy against VIOTR (Viola tricolor; [2]) [%] |
| --- | --- | --- | --- | --- | --- | --- | --- | --- | --- |
| [O-][S+]1CCCn2nc(N[C@@H]3CCCc4ccccc43)nc21 (some centres unmarked) [Example I-361] | 100 | 100 | 100 | 100 | 100 | 100 |  |  |  |
| Cc1ccc2c(c1)C(Nc1nc3n(n1)CCC(=O)N3Cc1ccccc1)CCC2 (centres unmarked) [Example I-315] | 80 | 80 |  | 90 | 100 | 100 |  |  |  |
| CN1C(=O)CCn2nc(NC3CCCc4ccccc43)nc21 (centres unmarked) [Example I-278] | 100 | 100 | 100 | 100 | 100 | 100 | 80 | 80 | 90 |
| Cc1ccc2c(c1)C(Nc1nc3n(n1)CCCN3S(C)(=O)=O)CC2 (centres unmarked) [Example I-301] | 100 | 100 | 80 | 100 | 100 | 90 |  |  |  |
| CCN1CCn2nc(N[C@@H]3CCCc4ccc(C)cc43)nc2C1 [Example I-343] | 100 | 100 |  | 100 | 100 | 100 |  |  |  |
| CC1CCc2ccccc2C1Nc1nc2n(n1)CCCC[S+]2[O-] (centres unmarked) [Example I-373] | 100 | 100 | 100 | 100 | 100 | 100 |  |  |  |
| CC(=O)N1CCCn2nc(NC3CCc4ccc(C)cc43)nc21 (centres unmarked) [Example I-320] | 90 | 100 |  | 100 | 100 | 100 |  |  |  |
| Cc1ccc2c(c1)C(Nc1nc3n(n1)CCCN3S(=O)(=O)C1CC1)CC2 (centres unmarked) [Example I-336] | 100 | 100 |  | 100 | 100 | 100 |  |  |  |
| Cc1ccc2c(c1)[C@H](Nc1nc3n(n1)CCN(S(=O)(=O)c1ccccc1Cl)C3)CCC2 [Example I-203] | 100 | 90 | 100 | 100 | 100 | 100 |  |  |  |
| c1ccc2c(c1)CCC[C@H]2Nc1nc2n(n1)CCCS2 [Example I-349] | 100 | 100 | 100 | 100 | 100 | 100 |  |  |  |
| Cc1ccc2c(c1)[C@H](Nc1nc3n(n1)CCN(C(=O)C1CCCCC1)C3)CCC2 [Example I-187] | 100 | 90 | 100 | 100 | 100 | 100 |  |  |  |
| Cc1ccc2c(c1)[C@H](Nc1nc3n(n1)CCN(S(=O)(=O)C1CCCC1)C3)[C@@H](C)C2 [Example I-193] | 100 | 90 | 100 | 100 | 100 | 100 |  |  |  |
| O=S1(=O)CCCCn2nc(NC3CCCc4ccccc43)nc21 (centres unmarked) [Example I-253] | 100 | 100 | 100 | 100 | 100 | 100 | 100 | 100 | 100 |
| Cc1ccc2c(c1)C(Nc1nc3n(n1)CCCS3)CCC2 (racemic) [Example I-207] | 100 | 100 | 100 | 100 | 100 | 100 |  |  |  |
| CC1CCc2ccccc2C1Nc1nc2n(n1)CCC[S+]2[O-] (centres unmarked) [Example I-362] | 100 | 100 | 100 | 100 | 100 | 100 |  |  |  |
| Cc1ccc2c(c1)C(Nc1nc3n(n1)CCC(=O)N3C(C)C)CCC2 (centres unmarked) [Example I-316] |  | 100 | 100 | 100 | 100 | 100 | 100 | 100 | 100 |
| Cc1ccc2c(c1)C(Nc1nc3n(n1)CCCN3S(C)(=O)=O)CCC2 (centres unmarked) [Example I-329] | 100 | 100 | 100 | 100 | 100 | 100 |  |  |  |
| [O-][S+]1CCCCn2nc(NC3CCc4ccccc43)nc21 (centres unmarked) [Example I-250] | 100 | 100 | 100 | 100 | 100 | 90 | 100 | 100 | 100 |
| CC1CCc2ccccc2C1Nc1nc2n(n1)CCCCS2(=O)=O (centres unmarked) [Example I-368] | 100 | 100 |  | 100 | 100 | 100 |  |  |  |
| Cc1ccc2c(c1)C(Nc1nc3n(n1)CCCS3(=O)=O)CCC2 (centres unmarked) [Example I-239] | 100 | 100 | 100 | 100 | 100 | 100 |  |  |  |
| O=S(=O)(C1CC1)N1CCCn2nc(NC3CCCc4ccccc43)nc21 (centres unmarked) [Example I-333] | 100 |  | 100 | 100 | 100 | 100 |  |  |  |
